This note sets out measurements from patent US12522572B2, “Isoxazole hydroxamic acids as histone deacetylase 6 inhibitors” (The George Washington University, A Congressionally …, priority 2017, dated 2026).

A word on the IC50: it is the point on the concentration scale where inhibition reaches its midpoint. A lower IC50 goes with greater potency.

One series concerns the target T1, Human HDAC1 (Homo sapiens, UniProt Q13547).
T1 construct: Full length with C-terminal GST tag, MW=79.9 kDa; GST (C); host or cells: Sf9 insect cells, baculovirus expression system
The series can be described thus: HDAC isoform inhibition, HDAC1. In kind it is biochemical. The settings on record: duplicate 10-dose IC50 mode, 3-fold serial dilution starting at 30 μM.

In a further series the target is T2, Human HDAC6 (Homo sapiens, UniProt Q9UBN7).
T2 construct: Full length with N-terminal GST tag, MW=159 kDa; GST (N); host or cells: Sf9 insect cells, baculovirus expression system
T2 sequence (Q9UBN7 1-1215): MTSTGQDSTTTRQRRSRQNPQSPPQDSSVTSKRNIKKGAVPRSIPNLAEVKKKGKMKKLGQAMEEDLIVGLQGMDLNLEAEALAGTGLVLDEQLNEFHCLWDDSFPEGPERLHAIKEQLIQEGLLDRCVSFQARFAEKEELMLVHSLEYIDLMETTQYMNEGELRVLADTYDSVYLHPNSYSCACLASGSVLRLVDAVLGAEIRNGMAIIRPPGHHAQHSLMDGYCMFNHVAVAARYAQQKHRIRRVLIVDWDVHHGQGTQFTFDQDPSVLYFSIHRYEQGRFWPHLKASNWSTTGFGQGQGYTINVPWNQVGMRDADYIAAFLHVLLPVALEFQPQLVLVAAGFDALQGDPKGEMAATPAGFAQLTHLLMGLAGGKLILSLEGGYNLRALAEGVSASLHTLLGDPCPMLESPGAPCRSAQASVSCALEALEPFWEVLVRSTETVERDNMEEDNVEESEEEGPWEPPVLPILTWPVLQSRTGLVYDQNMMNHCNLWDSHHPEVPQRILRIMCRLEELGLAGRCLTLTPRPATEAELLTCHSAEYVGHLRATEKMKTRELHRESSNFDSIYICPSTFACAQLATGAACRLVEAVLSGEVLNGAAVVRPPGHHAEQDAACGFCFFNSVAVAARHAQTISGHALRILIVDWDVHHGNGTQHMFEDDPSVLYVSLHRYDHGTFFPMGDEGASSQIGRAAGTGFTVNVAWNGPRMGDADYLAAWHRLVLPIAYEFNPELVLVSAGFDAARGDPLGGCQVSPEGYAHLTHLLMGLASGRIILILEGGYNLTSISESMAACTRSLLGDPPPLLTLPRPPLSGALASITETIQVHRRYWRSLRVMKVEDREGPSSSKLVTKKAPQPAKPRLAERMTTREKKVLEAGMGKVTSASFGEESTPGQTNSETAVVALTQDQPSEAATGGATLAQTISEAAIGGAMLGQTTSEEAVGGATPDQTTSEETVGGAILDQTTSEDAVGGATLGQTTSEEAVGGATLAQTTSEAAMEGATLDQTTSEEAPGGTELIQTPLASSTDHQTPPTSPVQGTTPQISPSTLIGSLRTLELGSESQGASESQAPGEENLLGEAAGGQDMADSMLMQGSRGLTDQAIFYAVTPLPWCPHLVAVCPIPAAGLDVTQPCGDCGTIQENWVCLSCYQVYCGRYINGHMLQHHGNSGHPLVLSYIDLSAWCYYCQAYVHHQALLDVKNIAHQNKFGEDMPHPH
Description: HDAC isoform inhibition, HDAC6. The series is classed as biochemical. The settings on record: for IC50: duplicate 10-dose IC50 mode, 3-fold serial dilution starting at 30 μM; for Selectivity HDAC1/HDAC6: ratio of HDAC1 IC50 to HDAC6 IC50.

Series [1] concerns Human melanoma WM164 cells. The series can be described thus: HDAC assay in WM164 cells. The series is classed as cell-based. The settings on record: different concentrations.
In series [2] the test system is Human melanoma WM164 cells. Description: Cytotoxicity assay (CellTox) in WM164 cells. In kind it is cell-based. The settings on record: different concentrations, 24 hour reading. Here is the method:
All cells were cultured in RPMI 1640 media, supplemented with 10% FBS, penicillin/streptomycin (50 U/ml), L-glutamine (2 mM), and 2-mercaptoethanol ([…]) (complete media), and grown under humidified conditions at 37° C. and 5% CO2.
Cells were plated at a desired density in a black, flat clear bottom, 96 well plate. After 24 hours of cell growth, the media was removed from all the wells, fresh media was added with the fluorescent CellTox dye, using the manufactured protocol. The plate was then treated with the compounds of interest at the various concentrations of the compound. Immediately after plating, a baseline reading was performed. The plate was then incubated for 24 hours before the next reading was done, which was considered the 24 hour reading. Assay measurements were collected using the SoftMax Pro Microplate Data Acquisition and Analysis Software paired with Molecular Devices spectrophotometer (SpectraMax).
Human melanoma WM164 cells were treated with different concentrations SS-2-08 and SS-01-100 to evaluate the HDAC activity associated with the potential cytotoxic effect of these compounds.

The test system of series [3] is Human melanoma WM164 cells. Description: Immunoblot of acetylated tubulin in WM164 cells. In kind it is cell-based. The settings on record: different concentrations, presence or absence of IL-6 (30 ng/uL) or IFNg (100 ng/uL). The protocol: Human Melanoma cells WM164 were cultured in RPMI 1640 media, supplemented with 10% FBS, penicillin/streptomycin (50 U/ml), L-glutamine (2 mM), and 2-mercaptoethanol (50 μM) (complete media), and grown under humidified conditions at 37° C. and 5% CO2.
The cells were lysed in a buffer containing 280 mM NaCl, 50 mM Tris HCL PH 8.0, 0.5% Igepal, 5 mM MgCl2, 10% glycerol and 1× protease inhibitor (Roche), phosphatase inhibitor (Santa Cruz Biotechnology). Lysates were sonicated on ice for […] (2 cycles of 30 s on, 30 s rest) and then mixed with 6× gel loading buffer and boiled for 5 minutes. Samples were then resolved on 10% or 4-15% gradient gels and transferred to nitrocellulose membranes. Membranes were blocked with 5% milk-PBS-Tween. Bands were detected by scanning blots with an LI-COR Odyssey imaging system using both 700 and 800 channels. The antibodies used for immunobloting included Anti-acetyl-α-Tubulin (SC-23950) and anti-α-Tubulin (SC-32293), which were purchased from Santa Cruz Biotechnology. Anti-HDAC6 (C0226) was from Assay Biotech. Anti-GAPDH (68795) was from Sigma Aldrich. Anti STAT3 (12640), anti P-STAT3 Y-705 (9138), anti P-STAT3 S727 (9136), and anti Acetil-STAT3 (2523) were purchased from Cell signaling. Anti PD-L1 (PA5-28115) was obtained from Thermo Scientific. Anti-FLAG (F1804) antibody was from Sigma. […]
In general terms: In western blotting, separated proteins are transferred to a membrane and probed.

The test system of series [4] is Murine melanoma SM1 cells. Description: ApoTox-Glo Triplex Assay, apoptosis. The series is classed as cell-based. Here is the method: Murine melanoma SM1 cells were cultured in RPMI 1640 medium supplemented with: 1% minimum essential medium (MEM) non-essential amino acids solution, 10% fetal bovine serum (FBS), and 1% penicillin-streptomycin (P/S) then grown under humidified conditions at 37° C. and 5% CO2.
The assay controls—Digitonin (D141-100MG), Ionomycin (I064-1MG) and Mitomycin C (M4287-2MG)—were purchased from Sigma. Through a control plate evaluation, the optimal control concentration was selected for HDACi on the compound plates—30 μg/mL Digitonin, 100 μM Ionomycin, and 25 μg/mL Mitomycin.
Murine melanoma cells were treated with individual HDACi along with the protocol recommended assay controls. Following the manufacturers protocol, Viability/Cytotoxity reagents were added—fluorescence was measured at […] 400Ex/505Em (viability) and 485Ex/520Em (cytotoxicity). Next, the Caspase 3/7 reagent was added, after incubation, luminescence was measured at Lm578 (apoptosis). Assay measurements were collected using the SpectraMax. During analysis, LBH is used as the control compound.

The test system of another series is SM1 melanoma tumor. Description: Syngeneic SM1 murine melanoma tumor model. The settings on record: 25 mg/kg and 50 mg/kg intraperitoneally, three times a week. In kind it is in vivo, C57/BL/6 mice. The protocol:
Animal experiments involving mice were performed in accordance to all approved protocols by the IACUC at The George Washington University. C57/BL/6 mice were obtained from Charles River (Massachusetts-Wilmington, USA). Mice for the in vivo tumor studies were subcutaneously injected in the right flank with 1.0×10^6 SM1 melanoma cells suspended in 100 μL 1× Phosphate Buffer Saline (PBS). After subcutaneous injection, tumor growth was monitored until they became palpable. Once palpable (5-8 mm in diameter), the animals were then treated with a vehicle control, or SS-2-08 at a dose of 25 mg/kg and 50 mg/kg, intraperitoneally, three times a week. Tumor growth was recorded twice a week. When the tumors reached 4000 mm^3, mice were euthanized. The values collected are represented as the mean tumor volume (mm^3) and standard deviation for treatment groups.

Series [5] is described as follows: Liver microsomal stability, mouse. In kind it is in vitro ADME. The settings on record: mouse liver microsomes.
The nature of series [6]: Hepatocyte stability, human. The series is classed as in vitro ADME. The settings on record: human hepatocytes.
Series [7] deals with Salmonella typhimurium (TA98 and TA1537). The series can be described thus: Mini-Ames test. In kind it is cell-based. The settings on record: two Salmonella typhimurium strains, presence and absence of S9 mix. The protocol: […]. SS-2-08 was incubated with two strains of Salmonella typhimurium (TA98 and TA1537) in the presence and absence of mammalian microsomal enzymes (S9 mix) to investigate the possible mutagenicity of this compound. […].

A further series addresses hERG (Homo sapiens, UniProt Q12809). The series can be described thus: cell-based.
Series [8] in a line: Hepatocyte stability, mouse. In kind it is in vitro ADME. The settings on record: mouse hepatocytes.
The nature of series [9]: Liver microsomal stability, human. In kind it is in vitro ADME. The settings on record: human liver microsomes. On the technique in general: Liver microsomes are a subcellular fraction often used to study metabolism.

“Also recorded” adds a separate entry of the source.

T1 sequence (Q13547 whole entry): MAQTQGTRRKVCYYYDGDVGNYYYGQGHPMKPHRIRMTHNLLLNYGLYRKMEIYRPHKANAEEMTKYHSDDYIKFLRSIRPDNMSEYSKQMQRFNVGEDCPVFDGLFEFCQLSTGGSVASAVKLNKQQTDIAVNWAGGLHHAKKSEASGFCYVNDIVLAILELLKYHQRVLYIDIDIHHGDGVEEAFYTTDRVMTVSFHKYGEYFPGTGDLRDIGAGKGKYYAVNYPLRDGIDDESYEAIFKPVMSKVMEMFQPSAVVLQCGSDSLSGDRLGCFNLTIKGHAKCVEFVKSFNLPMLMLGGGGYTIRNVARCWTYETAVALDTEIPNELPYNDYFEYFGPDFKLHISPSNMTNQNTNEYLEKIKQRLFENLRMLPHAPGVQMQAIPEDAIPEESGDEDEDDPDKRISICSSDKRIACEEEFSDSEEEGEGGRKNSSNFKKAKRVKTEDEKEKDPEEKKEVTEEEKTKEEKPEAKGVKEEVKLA
hERG, sequence (Q12809 whole entry): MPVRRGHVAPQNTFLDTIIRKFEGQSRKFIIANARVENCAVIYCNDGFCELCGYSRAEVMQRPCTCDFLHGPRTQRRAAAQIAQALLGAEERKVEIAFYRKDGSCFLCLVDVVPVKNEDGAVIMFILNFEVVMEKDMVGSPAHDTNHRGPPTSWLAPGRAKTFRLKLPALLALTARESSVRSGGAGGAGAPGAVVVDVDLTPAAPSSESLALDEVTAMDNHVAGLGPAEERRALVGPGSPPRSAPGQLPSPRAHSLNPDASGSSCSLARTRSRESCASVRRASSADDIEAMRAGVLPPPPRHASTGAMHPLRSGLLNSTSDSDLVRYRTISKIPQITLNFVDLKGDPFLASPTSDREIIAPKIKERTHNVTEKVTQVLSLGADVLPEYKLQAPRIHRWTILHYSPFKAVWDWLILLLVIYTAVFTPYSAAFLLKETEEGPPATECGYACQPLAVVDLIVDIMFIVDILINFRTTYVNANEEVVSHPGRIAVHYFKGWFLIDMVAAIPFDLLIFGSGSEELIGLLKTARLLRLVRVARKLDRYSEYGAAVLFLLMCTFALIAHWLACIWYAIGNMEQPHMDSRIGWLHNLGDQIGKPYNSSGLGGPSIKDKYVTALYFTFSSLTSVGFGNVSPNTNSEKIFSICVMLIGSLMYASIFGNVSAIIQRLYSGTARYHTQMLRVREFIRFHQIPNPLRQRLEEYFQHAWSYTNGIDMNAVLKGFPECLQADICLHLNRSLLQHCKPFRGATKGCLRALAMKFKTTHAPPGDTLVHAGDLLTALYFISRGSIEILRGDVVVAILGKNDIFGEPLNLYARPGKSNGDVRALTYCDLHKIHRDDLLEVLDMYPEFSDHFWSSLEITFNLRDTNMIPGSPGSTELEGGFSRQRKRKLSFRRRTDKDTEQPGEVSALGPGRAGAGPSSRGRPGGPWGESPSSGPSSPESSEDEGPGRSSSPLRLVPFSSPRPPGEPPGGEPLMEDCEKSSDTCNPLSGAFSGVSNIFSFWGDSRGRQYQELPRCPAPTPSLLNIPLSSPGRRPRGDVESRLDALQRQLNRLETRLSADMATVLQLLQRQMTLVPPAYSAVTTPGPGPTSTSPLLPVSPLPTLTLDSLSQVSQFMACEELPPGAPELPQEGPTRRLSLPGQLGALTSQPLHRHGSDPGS

`O=C(NCCc1cc(C(=O)NO)no1)c1ccccc1` [SS-1-100, 5-(2-Benzamidoethyl)-N-hydroxyisoxazole-3-carboxamide]: on Human HDAC1, the “IC50 (nM) HDAC1” value is given as “No inhibition”. Further, the IC50 on Human HDAC6 came out at 194 nM. The HDAC activity result in series [1] is “reduced the HDAC activity in a dose-dependent manner”. For the same molecule, the cytotoxicity result in series [2] is “minimal cytotoxicity effects”. In addition, the “levels of acetylated tubulin” value in [3] is listed as “increased”.

`O=C(NO)c1cc(CCCCN2c3ccc(Cl)cc3CCc3cc(Cl)ccc32)on1` [SS-1-54, 5-(4-(2,8-dichloro-10,11-dihydro-5H-dibenzo[bf]azepin-5-yl)butyl)-N-hydroxyisoxazole-3-carboxamide]: the “IC50 (nM) HDAC1” value on Human HDAC1 is given as “No inhibition”. For the same molecule, the IC50 against Human HDAC6 amounted to 1340 nM.

Molecule `O=C(NO)c1cc(CCCCN2CCCc3cc(Cl)ccc32)on1` [SS-4-01, 5-(4-(6-chloro-3,4-dihydroquinolin-1(2H)-yl)butyl)-N-hydroxyisoxazole-3-carboxamide] registered an IC50 against Human HDAC1 of 44000 nM. For the same molecule, at Human HDAC6, the IC50 stood at 1990 nM and the “Selectivity HDAC1/HDAC6” value was found to be 22.

For the molecule `O=C(NCCc1cc(C(=O)NO)no1)c1cccc(-c2ccccc2)c1` [SS-3-67, 5-(2-([1,1′-biphenyl]-3-ylcarboxamido)ethyl)-N-hydroxyisoxazole-3-carboxamide], the midpoint of inhibition at Human HDAC1, the IC50, lay at 2040 nM. Also, on Human HDAC6, the IC50 came to 24.1 nM and the “Selectivity HDAC1/HDAC6” value is listed as 85.

Molecule `O=C(NCCc1cc(C(=O)NO)no1)c1ccc2ccccc2c1` [SS-3-66, 5-(2-(2-naphthamido)ethyl)-N-hydroxyisoxazole-3-carboxamide] returned an IC50 against Human HDAC1 of 3030 nM. For the same molecule, on Human HDAC6, the IC50 was 10.3 nM and the “Selectivity HDAC1/HDAC6” value came out at 294.

With `O=C(NO)c1cc(CCCCn2ccc3cc(Cl)c(Cl)cc32)on1` [SS-3-94, 5-(4-(5,6-dichloro-1H-indol-1-yl)butyl)-N-hydroxyisoxazole-3-carboxamide], the IC50 on Human HDAC1 is 11200 nM. For the same molecule, on Human HDAC6, the IC50 was 693 nM and the “Selectivity HDAC1/HDAC6” value amounted to 16.

Take `O=C(NO)c1cc(CCCOc2ccc(Cl)c(Cl)c2)on1` [SS-4-10, 5-(3-(3,4-dichlorophenoxy)propyl)-N-hydroxyisoxazole-3-carboxamide]: the IC50 against Human HDAC6 worked out at 195 nM.

As to `CC1(C)CCN(CCCCc2cc(C(=O)NO)no2)c2ccc(Cl)cc21` [SS-4-02, 5-(4-(6-chloro-4,4-dimethyl-3,4-dihydroquinolin-1(2H)-yl)butyl)-N-hydroxyisoxazole-3-carboxamide], on Human HDAC1, the IC50 worked out at 174000 nM. In addition, at Human HDAC6, the midpoint of inhibition, the IC50, lay at 4360 nM and the “Selectivity HDAC1/HDAC6” value turned out to be 40.

In the case of `O=C(NCCc1cc(C(=O)NO)no1)c1ccc(Cl)c(Cl)c1` [SS-2-08, 5-(2-(3,4-dichlorobenzamido)ethyl)-N-hydroxyisoxazole-3-carboxamide], in series [4], the “apoptosis (Caspase 3/7)” value was “does not induce apoptosis”. Also, the tumor growth entry in the series on SM1 melanoma tumor was “reduces in vivo tumor growth”. For the same molecule, in series [5], the “Liver microsomal stability (t1/2 min, with NADPH) Mouse” value is 0.617 h. Moreover, in series [1], the HDAC activity entry was “reduced the HDAC activity in a dose-dependent manner”. Moreover, the “Hepatocyte stability (t1/2 min) Human” value in series [6] came out at 1.8 h. For the same molecule, the cytotoxicity result in series [2] was “minimal cytotoxicity effects”. Also, the Mini-Ames test result in series [7] is “No significant number of revertant colonies; also recorded: Negative”. This molecule came in with an IC50 against hERG above 30 µM. For the same molecule, the “levels of acetylated tubulin” value in series [3] was “increased”. Also, the “Hepatocyte stability (t1/2 min) Mouse” value in [8] was found to be 0.367 h. Besides, the “Liver microsomal stability (t1/2 min, with NADPH) Human” value in [9] was 2.25 h.
